The target of series [1] is T1, Thromboxane receptor (TP) (Homo sapiens, UniProt P21731).
T1 construct: expressed in transfected cells; host or cells: HEK-293 cells
T1 sequence (P21731 1-343): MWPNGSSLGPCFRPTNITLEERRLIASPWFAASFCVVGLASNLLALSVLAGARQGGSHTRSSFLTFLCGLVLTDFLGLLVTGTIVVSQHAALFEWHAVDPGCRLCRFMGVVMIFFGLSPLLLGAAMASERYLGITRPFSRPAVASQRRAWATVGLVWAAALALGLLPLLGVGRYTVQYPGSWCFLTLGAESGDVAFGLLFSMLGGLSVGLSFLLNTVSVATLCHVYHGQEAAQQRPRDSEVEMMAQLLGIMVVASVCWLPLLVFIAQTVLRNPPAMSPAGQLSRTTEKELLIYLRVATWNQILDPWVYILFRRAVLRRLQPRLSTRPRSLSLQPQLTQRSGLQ
The experiment in a line: TP receptor radioligand binding. The settings on record: Human recombinant HEK-293 cells. Here is the method: The compounds were tested on radioligand binding assays for thromboxane receptor binding essentially as described by Hedberg et al. (1988) J. Pharmacol. Exp. Ther. 245:786-792 and Saussy et al. (1986) J. Biol. Chem. 261: 3025-3029 according to the following:
TP Receptor Radioligand Binding Studies:
Human recombinant HEK-293 cells,
Incubation Time, Temp: 30 minutes at 25° C.
Incubation Buffer: 50 mM Tris-HCl, pH 7.4, 154 mM NaCl
Non-Specific Ligand: 1 μM SQ-29548
The data were transformed to semi-log and then analysed using non-linear regression to a four-parameter dose-response curve Y=Bottom+(Top−Bottom)/(1+10̂((LogEC50−X)*HillSlope)) using the log(agonist) vs. response—Variable slope function of GraphPad Prism software (http://graphpad.com/help/prism5/prism5help.html?usingnonlinear_regression_step_by_s.htm).

The next series concerns the target T2, Thromboxane synthase (Homo sapiens, UniProt P24557).
T2 construct: Human Platelet Thromboxane Synthase Assay; from tissue; host or cells: human platelets
T2 sequence (P24557 1-533): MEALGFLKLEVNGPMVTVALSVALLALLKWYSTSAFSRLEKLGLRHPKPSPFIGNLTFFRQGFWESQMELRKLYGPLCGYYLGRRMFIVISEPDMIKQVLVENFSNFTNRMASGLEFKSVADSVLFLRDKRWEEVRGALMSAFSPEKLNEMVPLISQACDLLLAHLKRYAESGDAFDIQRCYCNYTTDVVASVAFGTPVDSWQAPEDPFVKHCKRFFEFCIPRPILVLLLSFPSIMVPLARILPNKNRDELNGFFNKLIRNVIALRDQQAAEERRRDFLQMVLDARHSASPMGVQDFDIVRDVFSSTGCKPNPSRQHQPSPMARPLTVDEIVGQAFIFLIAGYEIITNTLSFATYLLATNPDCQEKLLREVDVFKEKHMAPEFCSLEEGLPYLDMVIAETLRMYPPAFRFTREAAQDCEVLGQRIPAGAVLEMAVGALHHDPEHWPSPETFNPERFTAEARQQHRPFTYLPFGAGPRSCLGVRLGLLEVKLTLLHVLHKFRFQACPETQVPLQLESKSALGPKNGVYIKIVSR
The experiment in a line: Human platelet thromboxane synthase assay. The series is classed as biochemical. Here is the method: The compounds were tested for thromboxane synthase inhibition essentially as described by Borsch-Haubold A G, Pasquet S, Watson S P. (1998). Direct inhibition of cyclooxygenase-1 and -2 by the kinase inhibitors SB 203580 and PD 98059. […] 1. Imidazole derivatives. J Med. Chem. (10):1139-48 according to the following:
Pre-incubation time, temp: 15 minutes at 25° C. Incubation time, temp: 3 minutes at 25° C.
Incubation Buffer: 10 mM Tris-HCl, pH 7.4
Quantification Method: ETA quantification of TxB2

The test system of series [2] is arterial thrombosis in a mouse model. In words: Arterial thrombosis in a mouse model (FeCl3, femoral artery). Type of series: in vivo. The settings on record: mice. The protocol: The solutions are diluted 3.3-fold in saline and 100 μl/25 g is injected. Thus, the above-mentioned doses of 100 and 300 mg/kg of compound correspond to final doses of 30 and 100 mg/kg.
During the experiments, a soluble salt of the drug is provided (e.g., potassium salt of compound C), diluted in saline. Of this formulation, 100 μl/25 g is injected i.v. in the tail vein (dose of 100 mg/kg).
Solutions are injected (100 μl/25 g body weight) i.v. in the tail vein over 2 min to obtain doses of each compound of 30 mg/kg and 100 mg/kg. Aspirin is given the same way at a dose of 200 mg/kg. Clopidogrel is administered by oral gavage at a dose of 20 mg/kg at 6-7 hours prior to the experiment. The animals assigned to each group are matched for body weight. Mice are typically 8-10 weeks old males and are in a 100% Swiss genetic background.
The flow in each image is expressed as a percentage of that at the contralateral side, and data are averaged for all 120 images to determine total flow. The same analysis is performed for 10 min intervals (which gives essentially the same information as the area under the curve). […] Flow before treatment is recorded as 100%, and that in occluded arteries as 0%. At the end of the experiment, blood is collected on 0.01M citrate buffer by heart puncture for determination of blood cell counts. Plasma is prepared by centrifugation and stored at −20° C. for determination of drug levels.
Statistical analysis for differences between two groups is performed by non-parametric Student t-test. Occlusion times >30 min were considered equal to 30 min for statistical analysis. Significance is set at p<0.05.

Series [3] relates to U-46619-induced platelet aggregation. In words: TP receptor platelet aggregation, rabbit. Type of series: cell-based, New Zealand Rabbit. The protocol:
Thrombosis Research 33:277-288.
TP Receptor Platelet Aggregation—Rabbit:
New Zealand Rabbit (2.75±0.25 kg) platelet rich plasma
Assay: Inhibition of 1.5 μM U-46619-induced platelet aggregation Incubation Time, Temp: 5 minutes at 37° C. Incubation Buffer Trisodium Citrate (0.13 M)-treated platelet rich plasma
Time of Assessment: 5 minutes
Quantification Method Optical Density Change

Another series deals with KKA^y mice. The experiment in a line: In vivo effect on serum glucose and other parameters in KKA^y mice. Here is the method: 52 male KKA^y mice are obtained commercially (e.g., from Clea Japan) at an age of 6 weeks and put on a high fat diet upon arrival. Individual mice were housed in IVC Type II cages during both the acclimatization and the experimental phase. Both food (high fat diet) and water are supplied ad libitum.
1 animal per cage. […] Lights on at 06:00 a.m. Temperature: 21-25° C. Relative humidity target range: 55-60%.
Mice were randomized into treatment groups according to their 4-h fasting blood glucose.
4 hours after the last administration, non-fasting conditions.
Gamma irradiated high fat diet is commercially available (e.g., Research Diets, Inc. New Brunswick, N.J. (Product # D12266BI)).
Blood is collected into heparin containing glass capillaries which are subsequently centrifuged in a “Haematokrit 24” centrifuge (Hettich) at 15′200×g for 10 minutes at room temperature to obtain the hematocrit value.
The following serum parameters are determined on a COBAS INTEGRA 800 auto analyzer (Roche Diagnostics, Switzerland) using the reagents and protocols provided by the supplier.
All measurements are made on Day 14 of administration, except for the food intake and body weight measurements that are made on Day 12.

The mark [4] stands for this setting: 14-day oral gavage BID, dose not given.
Where [5] appears, read: 53 mg/kg BID oral gavage 14 days, high fat diet, Day 14.

Consider `O=C(O)CC/C=C\C[C@@H]1CO[C@H](c2coc3ccc(Cl)cc3c2=O)O[C@@H]1c1ccccc1O` (single isomer, unassigned) [Compound 3-1], for which the “Binding to the TP receptor (comparison of enantiomers)” value in series [1] is reported as “binds with higher affinity than enantiomer 3-2”. Besides, the IC50 (usually the point on the concentration scale where inhibition reaches its midpoint) amounted to 88.9 nM in series [1] (5 nM [3H] SQ-29548) and 365 nM on Thromboxane synthase. In series [1] (5 nM [3H] SQ-29548), the Ki – broadly, the equilibrium dissociation constant of an inhibitor or competing ligand from its target – turned out to be 58 nM. The inhibition (commonly the share of the control response that was lost under treatment) at 1 µM in series [1] (at 1 μM, 5 nM [3H] SQ-29548) was 99%; at Thromboxane synthase (at 1 μM), 67%.

Turning to `COc1ccccc1[C@@H]1O[C@H](c2ccccc2Cl)OC[C@@H]1C/C=C\CCC(=O)O` [Compound E, (Z)-6-((2R,4R,5S)-2-(2-chlorophenyl)-4-(2-methoxyphenyl)-1,3-dioxan-5-yl)hex-4-enoic acid, reference compound], the inhibition at 10 µM in series [1] (5 nM [3H] SQ-29548) turned out to be 85%. At Thromboxane synthase (at 30 μM), this compound registered an inhibition at 30 µM of 52%.

With `CC(=O)Oc1ccccc1C(=O)O` [Aspirin], in series [2] (200 mg/kg i.v.), the Occlusion time result is listed as “has no effect on the occlusion time” and the Total blood flow result was “has no significant effect on the total blood flow”.

`Cc1ccc2nc(Cl)c([C@H]3OC[C@@H](C/C=C\CCC(=O)O)[C@@H](c4ccccc4O)O3)cc2c1` (racemic) [Compound 13, (Z)-6-(2-(2-Chloro-6-methyl-quinolin-3-yl)-4-(2-hydroxyphenyl)-1,3-dioxan-5-yl)hex-4-enoic acid]: the “Inhibition of thromboxane synthase (in words)” value on Thromboxane synthase is “potent inhibitors of thromboxane synthase”. The same compound showed an inhibition at 5 µM on Thromboxane synthase (at 5 μM) of 85%. The “Inhibition of platelet aggregation (in words)” value in series [3] is given as “potent inhibitors of platelet aggregation”. Moreover, the inhibition at 10 µM in series [3] (Oryctolagus cuniculus, at 10 μM, 1.5 μM U-46619, platelet rich plasma) was found to be 100%. Further, in series [2] (dose not given), the Occlusion time result is recorded as “prolongs the occlusion time” and the Total blood flow entry is “improves total blood flow”. For the same compound, in the series on KKA^y mice (setting [4]), the FFA entry is “decreases the FFA”, the HbA1c levels entry is recorded as “decreased” and the Heart weight entry is recorded as “has no effect on heart weight”. Also, the Body weight result in the series on KKA^y mice (oral gavage BID, dose not given) was “do not alter body weight”.

`O=C(O)CC/C=C\C[C@H]1CO[C@@H](c2coc3ccc(Cl)cc3c2=O)O[C@H]1c1ccccc1O` (single isomer, unassigned) [Compound 3-2]: in series [1] (5 nM [3H] SQ-29548), the IC50 is 1680 nM, the inhibition constant (Ki) was determined as 1100 nM and the inhibition at 10 µM is 93%. Further, the IC50 on Thromboxane synthase was > 100000 nM. On Thromboxane synthase (at 100 μM), the inhibition at 100 µM was 37%.

Take `COC(=O)[C@H](c1ccccc1Cl)N1CCc2sccc2C1` [Clopidogrel]: in series [2] (20 mg/kg oral gavage 6-7 hours prior), the Total blood flow result was “significantly improved total blood flow”.

Consider `COc1ccccc1[C@@H]1O[C@H](c2ccccc2Cl)OC[C@@H]1C/C=C\CCC(=O)O` [Compound F, (Z)-6-((2R,4R,5S)-2-(2-chlorophenyl)-4-(2-methoxyphenyl)-1,3-dioxan-5-yl)hex-4-enoic acid, reference compound], for which the results for the IC50 (in series [1] (5 nM [3H] SQ-29548); on Thromboxane synthase) were 23.4 nM and 20400 nM, respectively. Besides, in series [1] (5 nM [3H] SQ-29548), the Ki worked out at 15.3 nM. In addition, the inhibition at 0.3 µM in series [1] (at 0.3 μM, 5 nM [3H] SQ-29548) stood at 96%. Also, the “Thromboxane synthase Human platelet Inhibition (%)” value on Thromboxane synthase (at 30 μM) is 62 @ 30 μM %.

For the compound `CN(CCOc1ccc(CC2SC(=O)NC2=O)cc1)c1ccccn1` (stereo not shown) [Rosiglitazone, reference compound], the Heart weight is given as 226.2 ± 6.9 mg in the series with KKA^y mice (5 mg/kg BID oral gavage 14 days, high fat diet, Day 14) and “increased” in the series on KKA^y mice (5 mg/kg BID oral gavage 14 days, high fat diet, Day 14, listed as rosiglitazone).

In the case of `O=C(O)CC/C=C\C[C@@H]1CO[C@H](c2ccccc2Cl)O[C@@H]1c1ccccc1O` [Compound C, (Z)-6-((2S,4S,5R)-2-(2-chlorophenyl)-4-(2-hydroxyphenyl)-1,3-dioxan-5-yl)hex-4-enoic acid, reference compound], in series [2] (30 mg/kg in vehicle i.v.), the Occlusion time entry is listed as “slightly prolongs the occlusion time as compared to aspirin (p=0.024), but has no effect as compared to vehicle” and the Total blood flow result is recorded as “has no effect on total blood flow”. In the series on KKA^y mice (setting [5]), the FFA entry was “decreases the FFA”, the HbA1C entry is recorded as “decreased”, the Heart weight result was “has no effect on heart weight” and the “Serum Glucose” value was “decreased”. The “Body weight” value with KKA^y mice (53 mg/kg BID oral gavage, high fat diet, Day 12) is on record as “do not alter body weight”.

The values above are taken from patent US20130197030A1, “Substituted 1,3-Dioxanes and There Uses” (Evolva Sa, priority 2007, published 2013).
